In article PMC9823088, “The oral selective estrogen receptor degrader GDC-0810 (ARN-810) in postmenopausal women with hormone receptor-positive HER2-negative (HR + /HER2 −) advanced/metastatic breast cancer” (Breast Cancer Research and Treatment, 2022):

System: ER + (HER2 −) locally advanced or metastatic breast cancer
Test: Anti-tumor activity per RECIST v1.1 (best confirmed overall outcome, clinical benefit rate, progression-free survival), phase Ia/Ib/IIa study
Format: in vivo, human
Description: This was a multi-institutional phase Ia/Ib/IIa, open-label, dose finding, safety, pharmacokinetics, and proof-of-concept study of GDC-0810 in women with ER + metastatic breast cancer. Phase Ia employed a standard 3 + 3 dose-escalation scheme. Phase Ib was dose escalation as part of combination treatment. Phase IIa explored the recommended phase 2 dose (RP2D) from phase Ia. The protocol was approved by institutional review boards (IRBs) at participating institutions. Written informed consent was obtained from patients prior to performing any procedures; the study was conducted in accordance with the principles of the Declaration of Helsinki and Good Clinical Practice.
Blood samples were collected for pharmacokinetic assessments. Tumor assessments were performed at screening and every 8 weeks from cycle 1, day 1 (C1D1). Radiographic assessment of objective tumor response or disease progression was based on Response Evaluation Criteria in Solid Tumors (RECIST v1.1). Transvaginal ultrasound scans were performed to monitor endometrial thickness at screening, at every 6 months from C1D1, and at the end of treatment. Imaging with [^18F]-fluoroestradiol positron emission tomography (FES-PET) was performed to quantify ER expression in tumors and to assess for pharmacodynamic response. Further assessment details are provided in Supplementary Methods.
Analyses of safety, pharmacokinetics, anti-tumor activity, and data from the FES-PET imaging correlative studies were planned. Confirmatory inferential analyses and imputation for missing data were not planned due to the exploratory nature of this study. Descriptive statistics were used to summarize patient data. The number of patients to be enrolled was dependent upon the observed safety and pharmacokinetic profile during dose escalations. The safety- and efficacy-evaluable population included patients who received at least one dose of the study drug. Safety was assessed through summaries of DLTs, AEs, changes in select laboratory test results, vital signs, ECGs, and changes in endometrial thickness. Objective response (with confirmation) and clinical benefit rates (CBR) were derived per RECIST v1.1 and summarized by dose level and cohort.
CYP2B6 and CYP2C enzymes. No hormonal therapy, chemotherapy, immunotherapy, or experimental anti-cancer medications were permitted during the study. […]
Tumor assessments were performed at screening and every 8 weeks from cycle-1, day-1 (C1D1). Radiographic assessment of objective tumor response or disease progression was based on Response Evaluation Criteria in Solid Tumors (RECIST v1.1). Transvaginal ultrasound scans were performed to monitor endometrial thickness at screening, at every 6 months from C1D1, and at the end of treatment. […]

[1] = all patients, phase IIa A1, 600 mg QD, n = 19
[2] = all patients, phase IIa A2, 600 mg QD, n = 10
[3] = all patients, phase IIa B1, 600 mg QD, n = 53
[4] = all patients, phase IIa B2, 600 mg QD, n = 19
[5] = all patients, phase Ia cohorts 1–9, 100–800-mg BID, 300–400-mg QD, n = 41
[6] = all patients, phase Ib C1, 400 mg QD + PALBO, n = 4
[7] = all patients, phase Ib D1, 600 mg QD + LHRH-A, n = 6
[8] = overall, 3 study phases (152 patients)
[9] = patients (n = 77) with tumors harboring ESR1 mutations
[10] = patients with tumors harboring ESR1 mutations
[11] = tumors harboring ESR1 mutations, phase IIa A1, 600 mg QD, n = 19
[12] = tumors harboring ESR1 mutations, phase IIa A2, 600 mg QD, n = 9
[13] = tumors harboring ESR1 mutations, phase IIa B1, 600 mg QD, n = 20
[14] = tumors harboring ESR1 mutations, phase IIa B2, 600 mg QD, n = 4
[15] = tumors harboring ESR1 mutations, phase Ia cohorts 1–9, 100–800-mg BID, 300–400-mg QD, n = 23
[16] = tumors harboring ESR1 mutations, phase Ib D1, 600 mg QD + LHRH-A, n = 2

CC/C(=C(/c1ccc(/C=C/C(=O)O)cc1)c1ccc2[nH]ncc2c1)c1ccc(F)cc1Cl [GDC-0810]
CBR (17 patients in phase Ia previously treated with fulvestrant): 35% | median time to event (median PFS) (54 patients in study phases Ib/IIa with tumors harboring ESR1 mutations): 3.5 months | median time to event (median PFS) (111 patients in study phases Ib/IIa): 3.5 months | Missing or unevaluable [1]: 1 (5%) n (%) | Non-complete response/non-progressive disease [1]: 5 (26%) n (%) | Partial response [1]: 0 n (%) | Progressive disease [1]: 9 (47%) n (%) | Stable disease [1]: 4 (21%) n (%) | Missing or unevaluable [2]: 2 (20%) n (%) | Non-complete response/non-progressive disease [2]: 0 n (%) | Partial response [2]: 0 n (%) | Progressive disease [2]: 4 (40%) n (%) | Stable disease [2]: 4 (40%) n (%) | Missing or unevaluable [3]: 3 (6%) n (%) | Non-complete response/non-progressive disease [3]: 8 (15%) n (%) | Partial response [3]: 4 (8%) n (%) | Progressive disease [3]: 21 (40%) n (%) | Stable disease [3]: 17 (32%) n (%) | Missing or unevaluable [4]: 0 n (%) | Non-complete response/non-progressive disease [4]: 4 (21%) n (%) | Partial response [4]: 0 n (%) | Progressive disease [4]: 11 (58%) n (%) | Stable disease [4]: 4 (21%) n (%) | Non-complete response/non-progressive disease [5]: 0 n (%) | Partial response [5]: 2 (5%) n (%) | Progressive disease [5]: 12 (29%) n (%) | Stable disease [5]: 26 (63%) n (%) | Missing or unevaluable [6]: 0 n (%) | Non-complete response/non-progressive disease [6]: 1 (25%) n (%) | Partial response [6]: 0 n (%) | Progressive disease [6]: 1 (25%) n (%) | Stable disease [6]: 2 (50%) n (%) | Missing or unevaluable [7]: 0 n (%) | Non-complete response/non-progressive disease [7]: 1 (17%) n (%) | Partial response [7]: 0 n (%) | Progressive disease [7]: 3 (50%) n (%) | Stable disease [7]: 2 (33%) n (%) | Progressive disease (overall population): 40% | Stable disease (overall population): 39% | missing/unevaluable (overall population): 5% | non-complete response/non-progressive disease (overall population): 13% | partial responses (overall population): 4% | Progressive disease [8]: 61 (40%) n (%) | Stable disease [8]: 59 (39%) n (%) | non-complete response/non-progressive disease [8]: 19 (13%) n (%) | partial responses [8]: 6 (4%) n (%) | CBR (overall, 3 study phases, n = 40): 26% | Progressive disease [9]: 29 (38%) n (%) | Stable disease [9]: 32 (42%) n (%) | missing/unevaluable [9]: 4 (5%) n (%) | non-complete response/non-progressive disease [9]: 9 (12%) n (%) | partial responses [9]: 3 (4%) n (%) | Progressive disease [10]: 38% | Stable disease [10]: 42% | missing/unevaluable [10]: 5% | non-complete response/non-progressive disease [10]: 12% | partial responses [10]: 4% | CBR (responses or SD lasting ≥ 24 weeks) (phase Ia dose escalation, 16 patients): 39% | Missing or unevaluable (phases Ib and IIa (n = 111)): 6 (5%) n (%) | PD, best confirmed overall outcome (phases Ib and IIa (n = 111)): 49 (44%) n (%) | non-complete response or non-progressive disease (non CR/PD) (phases Ib and IIa (n = 111)): 19 (17%) n (%) | CBR (phases Ib combination treatments and IIa expansion cohorts (n = 111), n = 24): 22% | CBR (tumors harboring ESR1 mutations, phase Ib/IIa (8 of 54 patients)): 15% | Missing or unevaluable [11]: 1 (5%) n (%) | Non-complete response/non-progressive disease [11]: 5 (26%) n (%) | Partial response [11]: 0 n (%) | Progressive disease [11]: 9 (47%) n (%) | Stable disease [11]: 4 (21%) n (%) | Missing or unevaluable [12]: 2 (22%) n (%) | Non-complete response/non-progressive disease [12]: 0 n (%) | Partial response [12]: 0 n (%) | Progressive disease [12]: 4 (44%) n (%) | Stable disease [12]: 3 (33%) n (%) | Missing or unevaluable [13]: 1 (5%) n (%) | Non-complete response/non-progressive disease [13]: 3 (15%) n (%) | Partial response [13]: 1 (5%) n (%) | Progressive disease [13]: 7 (35%) n (%) | Stable disease [13]: 8 (40%) n (%) | Missing or unevaluable [14]: 0 n (%) | Non-complete response/non-progressive disease [14]: 1 (25%) n (%) | Partial response [14]: 0 n (%) | Progressive disease [14]: 2 (50%) n (%) | Stable disease [14]: 1 (25%) n (%) | Missing or unevaluable [15]: 0 n (%) | Non-complete response/non-progressive disease [15]: 0 n (%) | Partial response [15]: 2 (9%) n (%) | Progressive disease [15]: 6 (26%) n (%) | Stable disease [15]: 15 (65%) n (%) | Missing or unevaluable [16]: 0 n (%) | Non-complete response/non-progressive disease [16]: 0 n (%) | Partial response [16]: 0 n (%) | Progressive disease [16]: 1 (50%) n (%) | Stable disease [16]: 1 (50%) n (%)
